Data as given in article PMC11597150, “Antibacterial Activity of AXOTL-13, a Novel Peptide Identified from the Transcriptome of the Salamander Ambystoma mexicanum” (Pharmaceutics, 2024).
Converted amounts (≈) assume the structure as drawn. Where a SMILES comes first, the peptide text is derived from it.

Tests used:
[1] = system: Escherichia coli ATCC 25922; format: cell-based; settings: for inhibitory effect on bacterial growth: microdilution in TSB, 8.7-70 μM, 20 h at 37 °C, absorbance 600 nm
Experimental: (§1) To establish the minimum inhibitory concentration (MIC), the microdilution-in-broth protocol for AMPs proposed by Wiegand et al. (2008) was performed. Bacterial strains Escherichia coli ATCC 25922 and Staphylococcus aureus ATCC 25923 were cultured in tryptic soy agar (TSA). For the assay, 5 bacterial colonies were taken, dissolved in tryptic soy broth (TSB), and incubated at 37 °C until reaching 0.5 on the McFarland scale (1 × 10^8 CFU/mL). Subsequently, a dilution was made to achieve a final concentration of 5 × 10^5 CFU/mL. A 96-well plate was used for the assay in which each bacterial strain was exposed to different concentrations of the peptides to be evaluated: 70 μM, 35 μM, 17.5 μM, and 8.7 μM. Different controls were employed: TSB medium served as the sterility control and blank; bacteria without treatment were utilized as the negative control; and bacteria exposed to the Ramosin peptide at 40 μM [31] and sodium hypochlorite at 0.06% were employed as positive controls. Each treatment was performed in triplicate, and each assay was carried out on two different days. The plate was incubated for 20 h at 37 °C in a Multiskan Sky (Thermo Fisher, Waltham, MA, USA), reading the absorbance at a wavelength of 600 nm every hour.
(§2) The results were read in two ways: an endpoint analysis in which the absorbances of the wells were read at 20 h of treatment, to determine the inhibitory effect of the peptide, and a bacterial growth kinetics analysis in which the behavior of the peptide throughout the assay was observed, identifying a bactericidal or bacteriostatic action.

[2] = system: Staphylococcus aureus ATCC 25923; assay: Broth microdilution MIC / growth inhibition; format: cell-based; settings: microdilution in TSB, 8.7-70 μM, 20 h at 37 °C, absorbance 600 nm
Experimental: as §1, §2

Compound | minimum inhibitory concentration (MIC) ([1]; ATCC 25922, 20 h) [µM] | inhibitory effect on bacterial growth [1] | inhibitory effect on bacterial growth [2]
CC[C@H](C)[C@H](NC(=O)[C@H](CO)NC(=O)[C@H](Cc1ccccc1)NC(=O)CN)C(=O)N[C@@H](CO)C(=O)N[C@@H](CC(C)C)C(=O)N[C@@H](CCCCN)C(=O)N[C@@H](CCCNC(=N)N)C(=O)N[C@@H](CC(C)C)C(=O)N[C@@H](CCC(N)=O)C(=O)N[C@@H](CCCCN)C(=O)N[C@@H](CCSC)C(=O)N[C@@H](CC(C)C)C(=O)O [AXOTL-13] (H-GFSISLKRLQKML-OH) | 35 (≈ 53.2 µg/mL) |  | 
Peptide 4766: 13-residue peptide LIGGQLGGLIKAL predicted from the Ambystoma mexicanum transcriptome, chemically synthesized |  | did not exert a complete inhibitory effect | did not exert a complete inhibitory effect
Peptide 4767: 13-residue peptide YITGLIAPILKSL predicted from the Ambystoma mexicanum transcriptome, chemically synthesized |  | did not exert a complete inhibitory effect | did not exert a complete inhibitory effect
Peptide 4768: 12-residue peptide VLGSILGALKAI predicted from the Ambystoma mexicanum transcriptome, chemically synthesized |  | did not exert a complete inhibitory effect | did not exert a complete inhibitory effect
Peptide 4769: 13-residue peptide LHPLIGRVIGGVI predicted from the Ambystoma mexicanum transcriptome, chemically synthesized |  | did not exert a complete inhibitory effect | did not exert a complete inhibitory effect
Peptide 4771: 13-residue peptide LLDTIGKIFGSLL predicted from the Ambystoma mexicanum transcriptome, chemically synthesized |  | did not exert a complete inhibitory effect | did not exert a complete inhibitory effect
